# From ChEMBL document CHEMBL1154575, “Bioactive 12-oleanene triterpene and secotriterpene acids from Maytenus undata” (J Nat Prod, 2000)
# Experiments:
# Pseudomonas aeruginosa = assay: Antibacterial activity against Pseudomonas aeruginosa ATCC 15442 after 48 hrs by agar dilution method; format: functional; conditions: ATCC 15442, 48 h
# [1] = Antiinflammatory activity in rat neonatal brain microglia cells assessed as effect on phorbol-12-myristate-13-acetate-stimulated thromboxane B2 release; format: functional, cell-based
# [2] = Antiinflammatory activity in rat neonatal brain microglia cells assessed as effect on phorbol-12-myristate-13-acetate-stimulated superoxide release; format: functional, cell-based
# Staphylococcus aureus [3] = assay: Antibacterial activity against Staphylococcus aureus ATCC 6535 after 48 hrs by agar dilution method; format: functional; conditions: ATCC 6535, 48 h
# Staphylococcus aureus [4] = assay: Antibacterial activity against methicillin-resistant Staphylococcus aureus ATCC 33591 after 48 hrs by agar dilution method; format: functional; conditions: ATCC 33591, 48 h
# [5] = Toxicity against rat neonatal brain microglia cells assessed as phorbol-12-myristate-13-acetate-stimulated LDH release; format: cell-based
Structure (SMILES),MIC (Pseudomonas aeruginosa),IC50 [1],IC50 [2],MIC (Staphylococcus aureus [3]),MIC (Staphylococcus aureus [4]),IC50 [5]
C=C(C)[C@@H]1CC[C@]2(C)[C@H](CC=C3[C@@H]4C[C@](C)(C(=O)O)CC[C@]4(C)CC[C@]32C)[C@@]1(C)CCC(=O)O,6.25 µg/mL,0.5 µM,1.9 µM,> 3.25 µg/mL,> 6.25 µg/mL,> 1 µM
CO[C@@H]1C=C2[C@@H]3C[C@@](C)(C(=O)O)CC[C@]3(C)CC[C@@]2(C)[C@]2(C)CC[C@H]3C(C)(C)C(=O)CC[C@]3(C)[C@@H]12,10 µg/mL,5 µM,15 µM,> 10 µg/mL,> 10 µg/mL,> 30 µM
CC1(C)C(=O)CC[C@]2(C)[C@H]3C(=O)C=C4[C@@H]5C[C@@](C)(C(=O)O)CC[C@]5(C)CC[C@@]4(C)[C@]3(C)CC[C@@H]12,,2.3 µM,6.7 µM,,,> 10 µM
CCO[C@@H]1C=C2[C@@H]3C[C@@](C)(C(=O)O)CC[C@]3(C)CC[C@@]2(C)[C@]2(C)CC[C@H]3C(C)(C)C(=O)CC[C@]3(C)[C@@H]12,12.5 µg/mL,,,> 12.5 µg/mL,50 µg/mL,
CC1(C)C(=O)CC[C@]2(C)C3=CC=C4[C@@H]5C[C@@](C)(C(=O)O)CC[C@]5(C)CC[C@@]4(C)[C@]3(C)CC[C@@H]12,6.25 µg/mL,> 100 µM,> 100 µM,> 50 µg/mL,> 50 µg/mL,> 30 µM
C=C(C)[C@@H]1CC[C@]2(C)[C@H](CC=C3[C@@H]4C[C@@](C)(C(=O)O)CC[C@]4(C)CC[C@]32C)[C@@]1(C)CCC(=O)O [KOETJAPIC ACID],6.25 µg/mL,,,> 6.25 µg/mL,12.5 µg/mL,
CC1(C)C(=O)CC[C@]2(C)[C@H]3[C@H](O)C=C4[C@@H]5C[C@@](C)(C(=O)O)CC[C@]5(C)CC[C@@]4(C)[C@]3(C)CC[C@@H]12,> 6.26 µg/mL,3.6 µM,3.2 µM,> 6.25 µg/mL,> 6.25 µg/mL,> 1 µM
